Results published in article PMC8493801, “Exploring the Monoterpene Indole Alkaloid Scaffold for Reversing P-Glycoprotein-Mediated Multidrug Resistance in Cancer” (Pharmaceuticals, 2021).

Legend:
[1] = system: sensitive L5178Y mouse T-lymphoma cells (PAR); test: MTT antiproliferative assay, sensitive cells; assay type: cell-based; conditions: 72 h, mean ± SD
Method: (§1) Non-cancer mouse embryonic fibroblasts (NIH/3T3) were also used.
(§2) L5178Y mouse T-lymphoma cells (ECACC catalog no. 87111908, US FDA, Silver Spring, MD, USA) were transfected with the pHa MDR1/A retrovirus as previously reported. The ABCB1 (P-gp) overexpressing cells were selected by culturing the infected cells with 60 ng/mL of colchicine (Sigma-Aldrich Chemie GmbH, Steinheim, Germany) to preserve the MDR phenotype. L5178Y (parental, PAR) mouse T-cell lymphoma cells and the human ABCB1-transfected subline were cultured in McCoy’s 5A supplemented with 10% heat-inactivated horse serum, 100 U/L L-glutamine, and 100 mg/L penicillin-streptomycin mixture, all obtained from Sigma-Aldrich. The mouse embryonic fibroblast (NIH 3T3) cell line was purchased from ATCC (CRL-1658) and was cultured in DMEM medium supplemented with 10% fetal bovine serum. These adherent cells were detached using 0.25% trypsin and 0.02% EDTA for 5 min at 37 °C. Before the antiproliferative assay using NIH 3T3 cell line, the cells were seeded in untreated 96-well flat bottomed microtiter plates, following a 4 h incubation period in a humidified atmosphere (5% CO2, 95% air) at 37 °C.
The assay was performed according to the previously applied experimental settings.

[2] = system: mouse embryonic fibroblasts (NIH/3T3); test: MTT antiproliferative assay, non-cancer cells; assay type: cell-based; conditions: for SI C/B (Selectivity Index): IC50 NIH/3T3 / IC50 MDR; for SI C/A (Selectivity Index): IC50 NIH/3T3 / IC50 PAR; for IC50: NIH3T3, non-cancer mouse embryonic fibroblasts, MTT, read-out: IC50 NIH/3T3 (C)
Method: as §1
In addition, the antiproliferative activity of the compounds was also evaluated on non-cancerous mouse embryonic fibroblast cells (NIH/3T3), whose values were compared with those of PAR and MDR cells by evaluation of the selective index (SI) values. […] The highest selective index values (SIC/A = 9.39; SIC/B = 10.79) were found for the derivative bearing the trimethoxyphenyl substituent (17).
as §2

[3] = system: human ABCB1-transfected L5178Y mouse lymphoma cells; test: Checkerboard combination assay with doxorubicin; assay type: cell-based; set-up: key to CI at ED50 (combination index): CI <1 synergy, =1 additive, >1 antagonism; conditions: MDR cells; for CI at ED50 (combination index): best ratio
Method: The in vitro interactions between the compounds and the well-known antitumor drug and P-gp substrate, doxorubicin, were evaluated in a combination chemotherapy model on human ABCB1-transfected mouse T-lymphoma cells. The nature of drug–drug interactions was assessed by determination of the combination index (CI) using the Chou and Talalay method (Figure 1), and therefore evaluated as synergistic (CI < 1), additive (CI = 1), or antagonistic (CI > 1).
Doxorubicin (2 mg/mL, Teva Pharmaceuticals, Budapest, Hungary) was serially diluted horizontally in 100 µL as previously described, starting with 8.6 µM. The resistance modifier was subsequently diluted vertically in 50 µL; the starting concentration was determined based on the IC50. […] The checkerboard plates were kept for 72 h at 37 °C in a CO2 incubator, and at the end of the incubation period, the cell growth was determined by MTT staining method, as described earlier. Drug interactions were evaluated using Calcusyn software. Each dose–response curve (for individual agents as well as combinations) was fit to a linear model using the median effect equation in order to obtain the median effect value (corresponding to the IC50) and slope (m). The goodness-of-fit was assessed using the linear correlation coefficient, r, and only data from analysis with r > 0.90 were presented. The extent of interaction between drugs was expressed using the combination index, in which a CI value close to 1 indicates additivity, while a CI < 1 is defined as synergy and a CI > 1 as antagonism.

[4] = target: T1, recombinant human P-gp membranes (Homo sapiens, UniProt P08183); test: P-gp ATPase activity assay (Pgp-Glo); assay type: biochemical; conditions: 25 µM
T1 construct: purchased Promega
Description: Once it was established that ATP hydrolysis is directly associated with the P-gp efflux activity, the interaction mode between selected compounds (12, 17, 18, 20, and 29) and this transporter protein was further investigated using human P-gp membranes in the ATPase activity assay (P-gp-Glo^TM) to gather insights about their interaction with P-gp activity, namely, as stimulators or inhibitors. This ATPase activity assay is based on the ATP dependence of the light-generating reaction of firefly luciferase. After incubating P-gp with ATP, the reaction is stopped, and the ATP consumption by P-gp is given by a luciferase-generated luminescent signal due to the remaining unmetabolized ATP. Thus, a greater decrease in the signal means a higher P-gp activity.
Sodium orthovanadate (Vanadate, Na3VO4) is an inhibitor of P-gp ATPase activity; thus, after treating samples with vanadate, no P-gp-dependent ATP consumption is observed. Therefore, the P-gp basal ATP consumption (basal activity) is defined as the difference between the luminescent signal of samples treated with vanadate and untreated. Consequently, the tested compounds were ranked as stimulators or inhibitors by comparing their P-gp ATPase activity with the basal activity. Verapamil (0.5 mM), a known P-gp substrate and activator of the ATPase activity of this transporter, thus causing a decrease in the percentage of luminescence of luciferase when compared with untreated samples (Figure 2), was used as control. The results are represented in Figure 2 as the difference between the luminescence of luciferase observed when treated with the compounds and with vanadate in comparison with the basal activity (100%).
The P-glycoprotein ATPase activity was determined using the Pgp-Glo^TM Assay Systems Promega kit according to the manufacturer’s instructions. Briefly, 20 µL of recombinant human P-gp membranes (1.25 mg/mL), expressing high levels of human P-gp, were incubated in 20 µL of Pgp-Glo^TM assay buffer for 5 min at 37 °C. Compounds were tested at 25 µM sodium orthovanadate (Na3VO4, 0.25 mM) as an inhibitor control, verapamil as a substrate control (0.5 mM), and DMSO at 2% as solvent control. The reaction was initiated by adding 10 µL of 25 mM MgATP and incubated at 37 °C for 40 min. The ATPase reaction was stopped, and after adding 50 µL of ATP Detection Reagent, the samples were incubated at room temperature for 20 min. The luciferase-generated luminescent signal emitted was measured in a CLARIOstar Plus plate reader (BMG Labtech, UK) at 580 nm. The % of basal P-gp activity was calculated through the ratio between the luminescence measured of the P-gp ATPase activity of each compound and the basal activity according to Equation (4).
(4) % basal P-gp activity = LumNa3VO4−Lumtreated/LumNa3VO4−Lumuntreated×100%
Figure 2 Effect of compounds 12, 17, 18, 20, 29, and verapamil (VER) on P-gp ATPase activity. The compounds are identified as P-gp substrates if they stimulate its basal activity (>100%) or as modulators when inhibiting basal activity (<100%). Compounds were tested at 25 µM and verapamil at 0.5 mM. Results were calculated as the means ± SD from experiments performed in triplicates.

[5] = system: human ABCB1-gene transfected L5178Y subline (MDR); conditions: for RR (relative resistance ratio) = IC50MDR/IC50PAR: RR ≤ 0.5 means CS effect

T1 sequence (P08183 whole entry): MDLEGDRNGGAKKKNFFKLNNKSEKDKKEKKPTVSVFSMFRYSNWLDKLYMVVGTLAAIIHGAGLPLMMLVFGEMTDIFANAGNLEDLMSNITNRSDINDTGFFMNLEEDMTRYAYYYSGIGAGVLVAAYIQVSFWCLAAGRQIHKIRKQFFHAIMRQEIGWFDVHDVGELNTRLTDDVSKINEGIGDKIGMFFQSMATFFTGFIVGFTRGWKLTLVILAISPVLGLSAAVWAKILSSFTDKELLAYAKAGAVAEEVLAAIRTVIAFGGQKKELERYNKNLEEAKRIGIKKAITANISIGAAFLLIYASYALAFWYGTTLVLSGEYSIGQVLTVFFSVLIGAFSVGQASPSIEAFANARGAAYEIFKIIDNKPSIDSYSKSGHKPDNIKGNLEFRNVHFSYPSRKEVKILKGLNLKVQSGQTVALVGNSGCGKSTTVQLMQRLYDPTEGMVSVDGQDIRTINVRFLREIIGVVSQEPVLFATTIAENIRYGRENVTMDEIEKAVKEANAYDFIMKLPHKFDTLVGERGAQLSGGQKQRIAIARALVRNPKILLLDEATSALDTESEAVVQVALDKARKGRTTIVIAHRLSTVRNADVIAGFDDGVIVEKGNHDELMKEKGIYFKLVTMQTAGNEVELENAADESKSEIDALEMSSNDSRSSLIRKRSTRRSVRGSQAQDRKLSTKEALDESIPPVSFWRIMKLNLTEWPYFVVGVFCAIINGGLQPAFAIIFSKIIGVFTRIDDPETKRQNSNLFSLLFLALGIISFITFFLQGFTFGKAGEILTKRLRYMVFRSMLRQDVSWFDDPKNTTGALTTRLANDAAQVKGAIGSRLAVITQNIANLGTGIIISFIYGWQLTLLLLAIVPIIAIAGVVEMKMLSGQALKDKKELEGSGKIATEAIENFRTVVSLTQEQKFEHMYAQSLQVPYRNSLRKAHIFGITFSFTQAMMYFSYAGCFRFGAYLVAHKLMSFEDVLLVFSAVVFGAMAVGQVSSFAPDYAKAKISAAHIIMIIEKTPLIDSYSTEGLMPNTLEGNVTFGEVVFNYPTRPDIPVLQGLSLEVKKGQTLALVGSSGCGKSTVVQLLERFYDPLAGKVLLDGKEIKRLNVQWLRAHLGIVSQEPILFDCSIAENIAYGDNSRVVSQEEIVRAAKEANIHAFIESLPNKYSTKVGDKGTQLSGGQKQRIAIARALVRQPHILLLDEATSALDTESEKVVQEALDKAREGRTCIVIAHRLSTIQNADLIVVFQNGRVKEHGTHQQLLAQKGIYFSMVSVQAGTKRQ

Compound	IC50 [1]	Effect on P-gp ATPase activity [4]	IC50 [5]	RR (relative resistance ratio) = IC50MDR/IC50PAR [5]	% basal P-gp activity ([4]; basal activity = 100%)	SI C/B (Selectivity Index) [2]	SI C/A (Selectivity Index) [2]	IC50 [2]	Interaction [3]	CI at ED50 (combination index) [3]
CCCCCNC(=O)NN=C1CC2C(CC)CN(C)C(Cc3c1[nH]c1ccccc31)C2C(=O)OC (stereo not shown) [Compound 22]	5.43 ± 0.38 µM		4.28 ± 0.25 µM	0.79		6.24	4.92	26.7 ± 0.63 µM	Strong Synergism	0.219
CCC1CN(C)C2Cc3c([nH]c4ccccc34)C(=NNC(=O)NC(C)(C)C)CC1C2C(=O)OC (stereo not shown) [Compound 23]	26.3 ± 0.5 µM		12.3 ± 1.8 µM			>8.11	>3.81	> 100 µM	Strong Synergism	0.163
CCC1CN(C)C2Cc3c([nH]c4ccccc34)C(=NNC(=O)NC3CCCCC3)CC1C2C(=O)OC (stereo not shown) [Compound 24]	12.85 ± 0.12 µM		5.69 ± 0.71 µM			4.68	2.07	26.6 ± 0.31 µM	Synergism	0.301
CCC1CN(C)C2Cc3c([nH]c4ccccc34)C(=NNC(=O)Nc3ccc(C)cc3)CC1C2C(=O)OC (stereo not shown) [Compound 26]	9.41 ± 0.13 µM		8.22 ± 1.1 µM	0.87		3.15	2.75	25.9 ± 0.81 µM	Synergism	0.36
CCC1CN(C)C2Cc3c([nH]c4ccccc34)C(=NNC(=O)Nc3ccc([N+](=O)[O-])cc3)CC1C2C(=O)OC (stereo not shown) [Compound 30, 3-[2″-((4‴-nitrophenyl)carbamoyl)hydrazineylidene]dregamine]	6.04 ± 0.36 µM		4.83 ± 0.05 µM	0.80		2.90	2.32	14 ± 0.92 µM	Synergism	0.423

Further compounds by falling IC50 [1], results first:

IC50 [1]	Effect on P-gp ATPase activity [4]	IC50 [5]	RR (relative resistance ratio) = IC50MDR/IC50PAR [5]	% basal P-gp activity ([4]; basal activity = 100%)	Compound	SI C/B (Selectivity Index) [2]	SI C/A (Selectivity Index) [2]	IC50 [2]	Interaction [3]	CI at ED50 (combination index) [3]
12.95 ± 0.04 µM		10.8 ± 0.71 µM	0.83		CCC1CN(C)C2Cc3c([nH]c4ccccc34)C(=NNC(=O)Nc3ccccc3)CC1C2C(=O)OC (stereo not shown) [Compound 25]	2.56	2.13	27.6 ± 0.81 µM	Synergism	0.345
12.8 ± 0.16 µM	stimulating the P-gp activity	7.42 ± 0.48 µM	0.58		CCC1CN(C)C2Cc3c([nH]c4ccccc34)C(=NN=Cc3ccc(N(C)C)cc3)CC1C2C(=O)OC (stereo not shown) [Compound 12, 3-[(4″-(dimethylamino)benzylidene)hydrazineylidene]dregamine]	1.91	1.10	14.2 ± 0.59 µM	Strong Synergism	0.231
9.07 ± 0.67 µM	inhibitors of P-gp ATPase activity	7.9 ± 0.44 µM	0.87	< 100%	CCC1CN(C)C2Cc3c([nH]c4ccccc34)C(=NN=Cc3cc(OC)c(OC)c(OC)c3)CC1C2C(=O)OC (stereo not shown) [Compound 17, 3-[(3″,4″,5″-trimethoxybenzylidene)hydrazineylidene]dregamine]	10.79	9.39	85.2 ± 1.62 µM	Synergism	0.309
6.97 ± 0.12 µM		6.48 ± 0.25 µM	0.93		CCC1CN(C)C2Cc3c([nH]c4ccccc34)C(=NNC(=O)Nc3ccc(C(F)(F)F)cc3)CC1C2C(=O)OC (stereo not shown) [Compound 31, 3-[2″-((4‴-(trifluoromethyl)phenyl)carbamoyl)hydrazineylidene]dregamine]	1.03	0.96	6.7 ± 0.06 µM	Strong Synergism	0.296
6.88 ± 0.35 µM		6.37 ± 0.83 µM	0.92		CCC1CN(C)C2Cc3c([nH]c4ccccc34)C(=NNC(=O)Nc3ccc(OC)cc3)CC1C2C(=O)OC (stereo not shown) [Compound 27, 3-[2″-((4‴-methoxyphenyl)carbamoyl)hydrazineylidene]dregamine]	6.32	5.84	40.2 ± 3.49 µM	Strong Synergism	0.225
6.82 ± 0.64 µM		4.46 ± 1.38 µM	0.65		CCC1CN(C)C2Cc3c([nH]c4ccccc34)C(=NNC(=O)NCCCc3ccccc3)CC1C2C(=O)OC (stereo not shown) [Compound 32, 3-[2″-((3-phenylpropyl)carbamoyl)hydrazineylidene]dregamine]	2.13	1.39	9.51 ± 0.52 µM	Synergism	0.384
6.22 ± 0.59 µM		5.21 ± 0.09 µM	0.84		CCC1CN(C)C2Cc3c([nH]c4ccccc34)C(=NNC(=O)Nc3ccc(Cl)cc3)CC1C2C(=O)OC (stereo not shown) [Compound 28, 3-[2″-((4‴-chlorophenyl)carbamoyl)hydrazineylidene]dregamine]	2.45	2.06	12.8 ± 0.95 µM	Strong Synergism	0.158
